The term pIC50 denotes the negative decadic logarithm of the IC50, by convention in mol/L. Low values mean a large IC50, high ones a small IC50. For orientation: GI50 means the concentration that inhibits growth by half. A low value points to greater sensitivity of the cells.

pIC50: −log10 of the molar value.

The record followed here is US9550796B2, “Pyrrolopyrrolone derivatives and their use as BET inhibitors” (NOVARTIS AG, priority 2013, dated 2017).

One assay concerns the target BRD4 (Homo sapiens (Human), UniProt O60885). Briefly: TR-FRET in-vitro binding assay for BRD4. Conditions: 45 nM His-Brd4(44-477), acetyl-histone H4 (AcK 5, 8, 12, 16) peptide. A digest of the protocol: (§1)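 TR-FRET binding read after 35 min incubation at 30° C. Compounds dispensed from 90% DMSO solutions and tested at 8 concentrations in a 13.55 μL total reaction volume.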

In another assay the target is BRD2 (Homo sapiens (Human), UniProt P25440). Briefly: TR-FRET in-vitro binding assay for BRD2. Conditions: 45 nM His-Brd2(60-472), acetyl-histone H4 (AcK 5, 8, 12, 16) peptide. The method, then: TR-FRET In-Vitro Binding Assays for BRD2, BRD3, and BRD4: All assays were performed in 384-well microtiter plates. […] Liquid handling and incubation steps were done on an Innovadyne Nanodrop Express equipped with a robotic arm (Thermo CatX, Perkin Elmer/Caliper Twister II) and an incubator (Liconic STX40, Thermo Cytomat 2C450). The assay plates were prepared by addition of 50 nl per well of compound solution in 90% DMSO HummingBird nanodispenser (Zinsser Analytic). […] Reactions were incubated at 30° C. for 35 minutes. […] After 35 minutes incubation at 30° C., plates were measured in a Perkin Elmer EnVision multilabel reader. […] The stock solutions were stored at […] if not used immediately. For the test procedure the vials were defrosted and identified by a scanner whereby a working sheet was generated that guided the subsequent working steps. Compound dilutions were made in 96 well plates. This format enabled the assay of maximally […] at 8 concentrations (single points) including 4 reference compounds, if desired (known BET inhibitors from the prior art, for this and other assays of the type disclosed herein). The dilution protocol included the production of “pre-dilution plates”, “master plates” and “assay plates”. Polypropylene 96-well plates were used as pre-dilution plates. […] All dilution steps were done on a HamiltonSTAR robot. […] Identical “assay plates” were then prepared by pipetting 50 nL each of compound dilutions of the “master plates” into 384-well “assay plates” by means of a HummingBird 384-channel dispenser. These plates were used directly for the assay which was performed in a total volume of 13.55 μL.
Chain of BRD2 (P25440 60-472): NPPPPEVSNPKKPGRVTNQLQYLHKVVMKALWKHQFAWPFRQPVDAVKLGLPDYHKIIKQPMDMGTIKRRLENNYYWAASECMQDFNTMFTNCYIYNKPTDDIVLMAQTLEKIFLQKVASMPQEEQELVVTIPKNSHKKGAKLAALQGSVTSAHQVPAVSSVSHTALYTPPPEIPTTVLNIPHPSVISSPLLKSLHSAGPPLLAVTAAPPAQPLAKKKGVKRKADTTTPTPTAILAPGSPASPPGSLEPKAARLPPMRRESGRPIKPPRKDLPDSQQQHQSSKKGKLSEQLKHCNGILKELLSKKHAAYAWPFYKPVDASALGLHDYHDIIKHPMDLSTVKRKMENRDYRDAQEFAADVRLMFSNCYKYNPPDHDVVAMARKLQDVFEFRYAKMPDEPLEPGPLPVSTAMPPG
Background: In TR-FRET formats the signal depends on donor and acceptor labels being close together.

For a further assay, the target named is BRD3 (Homo sapiens (Human), UniProt Q15059). Nature of the assay: TR-FRET in-vitro binding assay for BRD3. The following applies: 45 nM His-Brd3(20-477), acetyl-histone H4 (AcK 5, 8, 12, 16) peptide. A digest of the protocol:
as §1

In a further assay the test system is MV-4-11. Briefly: Cell growth inhibition assay (CellTiter-Glo), MV-4-11. Conditions: MV-4-11 cells, 4 days; for GI50: Homo sapiens, MV4-11, 96 h, half-maximal growth inhibition; for MV-4-11 TGI: total growth inhibition. Type of assay: cell-based, human. A digest of the protocol:
(§2)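 Seed cells in their own media; add compound as 3-fold dilutions from 10 μM (0.1% DMSO final). Incubate 4 days at 37 °C, 5% CO2, then add CTG and read luminescence. Subtract no-cell background, correct to a day 0 plate, and fit IC50 and TGI.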
A general note: Cellular ATP, detected with luciferase, serves as a proxy for viable cell number.

Another assay has as its system THP-1. Nature of the assay: Cell growth inhibition assay (CellTiter-Glo), THP-1. Type of assay: cell-based, human. The following applies: THP-1 cells, 4 days; for GI50: Homo sapiens, 96 h, half-maximal growth inhibition; for THP-1 TGI: total growth inhibition. A digest of the protocol:
as §2

Another assay relates to K-562. Nature of the assay: Cell growth inhibition assay (CellTiter-Glo), K-562. Type of assay: cell-based, human. The following applies: K-562 cells, 4 days; for GI50: Homo sapiens, K562, 96 h, half-maximal growth inhibition; for K-562 TGI: total growth inhibition. A digest of the protocol: as §2
Another assay deals with CREBBP (Homo sapiens (Human), UniProt Q92793). Briefly: AlphaScreen in-vitro binding assay for CREBBP. Conditions: 324 nM His-CREBBP (1081-1197), acetyl-histone H4 (AcK 5, 8, 12) peptide. In a few lines: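 IC50 values were derived by non-linear regression of percent inhibition across 8 compound concentrations. Protein was His-tagged CREBBP bromodomain (1081-1197), peptide acetyl-histone H4 (AcK 5, 8, 12), in HEPES pH 7.5 buffer. Read-out was AlphaScreen with Ni-chelate acceptor and streptavidin donor beads, 35 min at 30° C then 60 min at RT.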
Chain of CREBBP (Q92793 1081-1197): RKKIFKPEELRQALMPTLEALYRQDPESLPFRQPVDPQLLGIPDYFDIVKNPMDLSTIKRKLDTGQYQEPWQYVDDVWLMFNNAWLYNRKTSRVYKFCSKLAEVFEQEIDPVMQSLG
For orientation: Alpha assays give light when donor and acceptor beads are brought close together.

Chain of BRD3 (Q15059 20-477): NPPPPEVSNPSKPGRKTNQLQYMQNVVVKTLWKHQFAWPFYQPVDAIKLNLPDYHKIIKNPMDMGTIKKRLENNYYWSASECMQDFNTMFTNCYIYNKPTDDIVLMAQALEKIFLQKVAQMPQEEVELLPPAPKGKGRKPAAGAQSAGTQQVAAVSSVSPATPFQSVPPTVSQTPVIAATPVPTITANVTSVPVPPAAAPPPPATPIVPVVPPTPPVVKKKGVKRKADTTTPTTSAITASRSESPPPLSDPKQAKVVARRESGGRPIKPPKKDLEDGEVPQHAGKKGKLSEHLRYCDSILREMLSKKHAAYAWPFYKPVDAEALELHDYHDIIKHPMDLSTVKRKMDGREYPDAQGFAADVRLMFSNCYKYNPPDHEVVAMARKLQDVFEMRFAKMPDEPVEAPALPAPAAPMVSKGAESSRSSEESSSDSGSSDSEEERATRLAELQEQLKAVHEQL

`COc1ncc(-c2cc3c(n2C)C(c2ccc(Cl)cc2)N(c2cc(C)c(=O)n(C)c2)C3=O)c(OC)n1` (centres unmarked) [Example 53, 6-(4-chlorophenyl)-2-(2,4-dimethoxypyrimidin-5-yl)-5-(1,5-dimethyl-6-oxo-1,6-dihydropyridin-3-yl)-1-methyl-5,6-dihydropyrrolo[3,4-b]pyrrol-4(1H)-one]: the pIC50 on BRD4 was 7.40; at BRD2, 7.39; at BRD3, 7.41.
Turning to `COc1ncccc1-c1cc2c([nH]1)C(c1ccc(Cl)cc1)N(c1cc(C)c3nnc(C)n3c1)C2=O` (centres unmarked) [Example 27, 6-(4-chlorophenyl)-5-(3,8-dimethyl-[1,2,4]triazolo[4,3-a]pyridin-6-yl)-2-(2-methoxypyridin-3-yl)-5,6-dihydropyrrolo[3,4-b]pyrrol-4(1H)-one], the pIC50 at BRD4 was 7.77; on BRD2, 7.43; at BRD3, 7.68. Besides, the values for the GI50 with MV-4-11, in the assay on THP-1 and in the assay on K-562 were 22.5 nM, 34.4 nM and 108 nM, respectively. Besides, in the assay with MV-4-11, the “MV-4-11 TGI” value turned out to be 37.7 nM. Besides, in the assay on THP-1, the “THP-1 TGI” value is 88 nM. Besides, the “K-562 TGI” value in the assay with K-562 is >10000 nM.
As for `Cc1cc(N2C(=O)c3cc(-c4cccc(N(C)C)n4)n(C)c3C2c2ccc(Cl)cc2)cn(C)c1=O` (centres unmarked) [Example 51, 6-(4-chlorophenyl)-5-(1,5-dimethyl-6-oxo-1,6-dihydropyridin-3-yl)-2-(6-(dimethylamino)pyridin-2-yl)-1-methyl-5,6-dihydropyrrolo[3,4-b]pyrrol-4(1H)-one], the negative-log IC50 (pIC50) on BRD4 was 7.48; on BRD2 it was 7.49; on BRD3, 7.42. Also, the GI50 in the assay with MV-4-11 was found to be 88.1 nM; in the assay with THP-1, 104 nM; in the assay with K-562, 449 nM. Besides, the “MV-4-11 TGI” value in the assay on MV-4-11 came out at 116 nM. Besides, in the assay on THP-1, the “THP-1 TGI” value was 165 nM. Besides, the “K-562 TGI” value in the assay with K-562 is >10000 nM.
Turning to `COc1cccc(C2c3c(ccn3C)C(=O)N2c2cc(Cl)c(=O)n(C)c2)c1` (centres unmarked) [Example 91, 5-(5-chloro-1-methyl-6-oxo-1,6-dihydropyridin-3-yl)-6-(3-methoxyphenyl)-1-methyl-5,6-dihydropyrrolo[3,4-b]pyrrol-4(1H)-one], at BRD2, the pIC50 was 6.08. Besides, the negative logarithm of the IC50 (pIC50) at BRD3 is 6.18. In addition, in the assay on MV-4-11, growth was halved (GI50) at 371 nM and the “MV-4-11 TGI” value was 641.5 nM. In the assay on THP-1, halving of growth (GI50) required 466 nM and the “THP-1 TGI” value turned out to be 1002.5 nM. In the assay with K-562, the GI50 amounted to 1720 nM and the “K-562 TGI” value is >10000 nM.
With `COc1cccc(C2c3c(ccn3C)C(=O)N2c2cc(C)c(=O)n(C)c2)c1` (centres unmarked) [Example 85, 5-(1,5-dimethyl-6-oxo-1,6-dihydropyridin-3-yl)-6-(3-methoxyphenyl)-1-methyl-5,6-dihydropyrrolo[3,4-b]pyrrol-4(1H)-one], the pIC50 is 6.16 at BRD4, 6.13 on BRD2 and 6.25 at BRD3.
Regarding `Cc1cc(N2C(=O)c3ccn(C)c3C2c2ccc(Cl)cc2)nn2c(C)nnc12` (centres unmarked) [Example 131, 6-(4-chlorophenyl)-5-(3,8-dimethyl-[1,2,4]triazolo[4,3-b]pyridazin-6-yl)-1-methyl-5,6-dihydropyrrolo[3,4-b]pyrrol-4(1H)-one], the values for the pIC50 at BRD4, on BRD3 and at CREBBP were 7.48, 7.57 and < 4.43, respectively. The GI50 is 9.21 nM in the assay with MV-4-11, 9.76 nM with THP-1 and 67.1 nM in the assay with K-562. Further, the “MV-4-11 TGI” value with MV-4-11 was 21.5 nM. Besides, the “THP-1 TGI” value in the assay on THP-1 stood at 30.25 nM. The “K-562 TGI” value in the assay with K-562 is >10000 nM.
Consider `Cc1cc(N2C(=O)c3c(NC(=O)CCN(C)C)cn(C)c3C2c2ccc(Cl)cc2)nn2c(C(F)F)nnc12` (centres unmarked) [Example 110, N-(6-(4-chlorophenyl)-5-(3-(difluoromethyl)-8-methyl-[1,2,4]triazolo[4,3-b]pyridazin-6-yl)-1-methyl-4-oxo-1,4,5,6-tetrahydropyrrolo[3,4-b]pyrrol-3-yl)-3-(dimethylamino)propanamide], for which the pIC50 at BRD4 was 7.52; on BRD3, 7.43; on CREBBP it was < 4.43. The GI50 was found to be 10 nM with MV-4-11, 257 nM in the assay with THP-1 and 211 nM with K-562. In addition, the “MV-4-11 TGI” value in the assay on MV-4-11 was 25.5 nM. Also, the “THP-1 TGI” value in the assay on THP-1 was 293.5 nM. Further, the “K-562 TGI” value in the assay with K-562 amounted to 5640 nM.
In the case of `Cc1cc(N2C(=O)c3c(NC(=O)CCN(C)C)cn(C)c3C2c2ccc(Cl)cc2)cc2c1nnn2C` (centres unmarked) [Example 115, N-(6-(4-chlorophenyl)-5-(1,4-dimethyl-1H-benzo[d][1,2,3]triazol-6-yl)-1-methyl-4-oxo-1,4,5,6-tetrahydropyrrolo[3,4-b]pyrrol-3-yl)-3-(dimethylamino)propanamide], the results for the pIC50 on BRD4, at BRD3 and on CREBBP were 7.59, 7.44 and 5.41, respectively. Besides, the GI50 in the assay with MV-4-11 was determined as 16.1 nM; with THP-1, 29.3 nM; with K-562, 157 nM. Also, in the assay with MV-4-11, the “MV-4-11 TGI” value is 25.7 nM. Moreover, the “THP-1 TGI” value in the assay with THP-1 was 79 nM. Besides, the “K-562 TGI” value in the assay on K-562 is >10000 nM.
Take `Cc1cc(N2C(=O)c3c(C4CC4)c(C)n(C)c3C2c2ccc(Cl)cc2)cn2c(C)nnc12` (centres unmarked) [Example 122, 6-(4-chlorophenyl)-3-cyclopropyl-5-(3,8-dimethyl-[1,2,4]triazolo[4,3-a]pyridin-6-yl)-1,2-dimethyl-5,6-dihydropyrrolo[3,4-b]pyrrol-4(1H)-one]: the pIC50 is 7.92 on BRD4, 7.82 on BRD3 and 5.35 on CREBBP. Also, the GI50 with MV-4-11 amounted to 9.11 nM; in the assay on THP-1, 6.04 nM; with K-562, 41 nM. The “MV-4-11 TGI” value with MV-4-11 was 12.97 nM. Also, the “THP-1 TGI” value with THP-1 was 11.93 nM. In addition, in the assay on K-562, the “K-562 TGI” value is >7000 nM.
Take `CNC(=O)Cn1cc(C)c2c1C(c1ccc(Cl)cc1)N(c1cc(C)c3nnc(C)n3c1)C2=O` (centres unmarked) [Example 127, 2-(6-(4-chlorophenyl)-5-(3,8-dimethyl-[1,2,4]triazolo[4,3-a]pyridin-6-yl)-3-methyl-4-oxo-5,6-dihydropyrrolo[3,4-b]pyrrol-1(4H)-yl)-N-methylacetamide]: the pIC50 at BRD4 is 7.07; at BRD3, 7.09; at CREBBP, 5.12. Also, the GI50 was found to be 412 nM with MV-4-11, 824 nM in the assay with THP-1 and 2320 nM in the assay on K-562. The “MV-4-11 TGI” value with MV-4-11 stood at 640 nM. In the assay on THP-1, the “THP-1 TGI” value came to 1129 nM. Moreover, the “K-562 TGI” value in the assay with K-562 was >10000 nM.
Turning to `CC(=O)Nc1cn(C)c2c1C(=O)N(c1cc(C)c3nnn(C)c3c1)C2c1ccc(Cl)cc1` (centres unmarked) [Example 113, N-(6-(4-chlorophenyl)-5-(1,4-dimethyl-1H-benzo[d][1,2,3]triazol-6-yl)-1-methyl-4-oxo-1,4,5,6-tetrahydropyrrolo[3,4-b]pyrrol-3-yl)acetamide], the pIC50 was 7.89 on BRD4, 7.82 at BRD3 and 5.80 at CREBBP. Further, the GI50 in the assay on MV-4-11 came to 13.6 nM; in the assay with THP-1 it was 12.9 nM; with K-562, 72 nM. Also, in the assay on MV-4-11, the “MV-4-11 TGI” value was 27.25 nM. The “THP-1 TGI” value with THP-1 was 30.35 nM. The “K-562 TGI” value with K-562 was >10000 nM.
